Measured values: a flash point compilation (Sun et al. 2020)

flash point [°C]	SMILES
207.00	CC(C)CCCCCOC(=O)C(C)Oc1cc(Cl)c(Cl)cc1Cl (stereo not drawn) [6-methylheptyl 2-(2,4,5-trichlorophenoxy)propanoate]
48.00	CC(C)CCCCCOC(=O)COc1ccc(Cl)cc1Cl [6-methylheptyl 2-(2,4-dichlorophenoxy)acetate]
94.00	CC(C)(C)CCCCCC(=O)O [7,7-dimethyloctanoic acid]
39.00	C=CC(=C)CCC=C(C)C [7-methyl-3-methylideneocta-1,6-diene]
104.00	CC(C)CCCCCCCO [8-methylnonan-1-ol]
85.00	CC(C)CCCCCCC=O [8-methylnonanal]
220.00	c1ccc2c(c1)[nH]c1ccccc12 [9H-carbazole]
151.00	c1ccc2c(c1)Cc1ccccc1-2 [9H-fluorene]
88.00	CC(=O)OC1CC2CCC1(C)C2(C)C (stereo not drawn) [(1,7,7-trimethyl-2-bicyclo[2.2.1]heptanyl) acetate]
64.00	CC1(C)C2CC[C@@]1(C)C(=O)C2 [(1R)-1,7,7-trimethylbicyclo[2.2.1]heptan-2-one]
47.00	CC1(C)[C@@H]2CC[C@@]1(C)C(=O)C2 [(1R,4R)-1,7,7-trimethylbicyclo[2.2.1]heptan-2-one]
66.00	CC1(C)[C@@H]2CC[C@]1(C)[C@H](O)C2 [(1S,2R,4R)-1,7,7-trimethylbicyclo[2.2.1]heptan-2-ol]
61.00	CC(=O)OC1CC(C)OC(C)O1 (stereo not drawn) [(2,6-dimethyl-1,3-dioxan-4-yl) acetate]
54.00	O=[N+]([O-])C(Br)=Cc1ccccc1 [(2-bromo-2-nitroethenyl)benzene]
100.00	COc1ccc(C(=O)c2ccccc2)c(O)c1 [(2-hydroxy-4-methoxyphenyl)-phenylmethanone]
97.00	C=C(C)C1CC=C(C)C(OC(C)=O)C1 (stereo not drawn) [(2-methyl-5-prop-1-en-2-ylcyclohex-2-en-1-yl) acetate]
108.00	CC(C)=CCC/C(C)=C/CO [(2E)-3,7-dimethylocta-2,6-dien-1-ol]
-21.00	C=CC/C=C/C [(4E)-hexa-1,4-diene]
89.00	C=C(C)[C@H]1CC=C(C)C(=O)C1 [(5S)-2-methyl-5-prop-1-en-2-ylcyclohex-2-en-1-one]
207.00	Cc1cn(/C=C/C=O)c(=O)[nH]c1=O [(E)-3-(5-methyl-2,4-dioxopyrimidin-1-yl)prop-2-enal]
23.00	CC/C=C/C#N [(E)-pent-2-enenitrile]
101.00	O=C1C=CCO1 [InChI=1S/C4H4O2/c5-4-2-1-3-6-4/h1-2H,3H2]
59.00	CCN(CC)CCCN [N',N'-diethylpropane-1,3-diamine]
16.00	CN(C)CCCN [N',N'-dimethylpropane-1,3-diamine]
135.00	NCCNCCNCCN [N'-[2-(2-aminoethylamino)ethyl]ethane-1,2-diamine]
76.00	Cc1ccc(N(C)C)cc1 [N,N,4-trimethylaniline]
155.00	CCN(CC)C(=O)c1cccc(C)c1 [N,N-diethyl-3-methylbenzamide]
-7.00	CCN(CC)CC [N,N-diethylethanamine]

flash point [°C]	SMILES
45.00	CCN(O)CC [N,N-diethylhydroxylamine]
113.00	CCN(CC)C(=O)c1cccnc1 [N,N-diethylpyridine-3-carboxamide]
180.00	c1ccc(N(c2ccccc2)c2ccccc2)cc1 [N,N-diphenylaniline]
177.00	CC(=O)NCCO [N-(2-hydroxyethyl)acetamide]
168.00	CC(=O)Nc1ccc(C)cc1 [N-(4-methylphenyl)acetamide]
280.00	CCCCCCCCCCCCCCCCCC(=O)NCCNC(=O)CCCCCCCCCCCCCCCCC [N-[2-(octadecanoylamino)ethyl]octadecanamide]
110.00	CC(=O)Nc1ccc(C(=O)CCl)cc1 [N-[4-(2-chloroacetyl)phenyl]acetamide]
59.00	CCC(C)=NO [N-butan-2-ylidenehydroxylamine]
141.00	CCCCN(C(C)=O)c1ccccc1 [N-butyl-N-phenylacetamide]
108.00	ClNc1ccccc1 [N-chloroaniline]
13.00	CCCCNC [N-methylbutan-1-amine]
98.00	CNC=O [N-methylformamide]
174.00	CC(=O)Nc1ccccc1 [N-phenylacetamide]
17.00	CCCNCCC [N-propylpropan-1-amine]
166.00	OCC1CCC(CO)CC1 (stereo not drawn) [[4-(hydroxymethyl)cyclohexyl]methanol]
9.00	C[Si](C)(C)N[Si](C)(C)C [[dimethyl-(trimethylsilylamino)silyl]methane]
-18.00	C#C [acetylene]
52.00	COc1ccccc1 [anisole]
162.00	N#Cc1ccccc1C#N [benzene-1,2-dicarbonitrile]
127.00	Oc1cccc(O)c1 [benzene-1,3-diol]
180.00	O=C(Cl)c1ccc(C(=O)Cl)cc1 [benzene-1,4-dicarbonyl chloride]
165.00	Oc1ccc(O)cc1 [benzene-1,4-diol]
-11.00	c1ccccc1 [benzene]
72.00	N#Cc1ccccc1 [benzonitrile]
91.00	CC(=O)OCc1ccccc1 [benzyl acetate]
148.00	O=C(OCc1ccccc1)c1ccccc1 [benzyl benzoate]
210.00	CCCCC(CC)COC(=O)CCCCCCCCC(=O)OCC(CC)CCCC (stereo not drawn) [bis(2-ethylhexyl) decanedioate]

SMILES	flash point [°C]
C=CC(=O)OCCCCCC(C)C [6-methylheptyl prop-2-enoate]	91.00
C=CC(=O)OCCCCCCCC(C)C [8-methylnonyl prop-2-enoate]	116.00
c1ccc2c(c1)Nc1ccccc1S2 [10H-phenothiazine]	202.00
Cc1ccccc1OP(=O)(Oc1ccccc1)Oc1ccccc1 [(2-methylphenyl) diphenyl phosphate]	232.00
Cl/C=C/CCl [(E)-1,3-dichloroprop-1-ene]	35.00
C/C=C/C=O [(E)-but-2-enal]	13.00
C/C=C/CC#N [(E)-pent-3-enenitrile]	38.00
CSC(C)(C)/C=N/O [(NE)-N-(2-methyl-2-methylsulfanylpropylidene)hydroxylamine]	118.00
NCCCNCCCN [N'-(3-aminopropyl)propane-1,3-diamine]	79.00
CCN(CC)c1ccccc1 [N,N-diethylaniline]	85.00
CN(C)c1ccccc1 [N,N-dimethylaniline]	63.00
CN(C)C(=O)Cl [N,N-dimethylcarbamoyl chloride]	68.00
CN(C)P(=O)(N(C)C)N(C)C [N-[bis(dimethylamino)phosphoryl]-N-methylmethanamine]	106.00
CCC(C)Nc1c([N+](=O)[O-])cc(C(C)(C)C)cc1[N+](=O)[O-] (stereo not drawn) [N-butan-2-yl-4-tert-butyl-2,6-dinitroaniline]	36.00
CCCCN(CCC)N=O [N-butyl-N-propylnitrous amide]	94.00
CCCC=NO [N-butylidenehydroxylamine]	58.00
CCN(C)N=O [N-ethyl-N-methylnitrous amide]	76.00
CNC [N-methylmethanamine]	-7.00
CC(C)NC(C)C [N-propan-2-ylpropan-2-amine]	-1.00

SMILES	flash point [°C]
CCSC(=O)N(CC)C1CCCCC1 [S-ethyl N-cyclohexyl-N-ethylcarbamothioate]	139.00
CCSC(=O)Cl [S-ethyl chloromethanethioate]	31.00
CCCSC(=O)N(CCC)CCC [S-propyl N,N-dipropylcarbamothioate]	122.00
CCCSC(=O)Cl [S-propyl chloromethanethioate]	62.00
C#CCOS(=O)OC1CCCCC1Oc1ccc(C(C)(C)C)cc1 (stereo not drawn) [[2-(4-tert-butylphenoxy)cyclohexyl] prop-2-ynyl sulfite]	28.00
C/C=C/c1ccccc1 [[(E)-prop-1-enyl]benzene]	52.00
CC(=O)OC(C)=O [acetyl acetate]	49.00
CC(=O)Br [acetyl bromide]	75.00
CC(=O)Cl [acetyl chloride]	4.00
CC(=O)OOC(C)=O [acetyl ethaneperoxoate]	45.00
CC(=O)[O][Hg][c]1ccccc1 [acetyloxy(phenyl)mercury]	60.00
Nc1ccccc1 [aniline]	70.00
O=Cc1ccccc1 [benzaldehyde]	64.00
Nc1ccc(N)cc1 [benzene-1,4-diamine]	155.00
Sc1ccccc1 [benzenethiol]	53.00
c1ccc2c(c1)ccc1ncccc12 [benzo[f]quinoline]	166.00
CCCCC(CC)COC(=O)c1ccc(C(=O)OCC(CC)CCCC)cc1 (stereo not drawn) [bis(2-ethylhexyl) benzene-1,4-dicarboxylate]	238.00
CCCCC(CC)COC(=O)CCCCC(=O)OCC(CC)CCCC (stereo not drawn) [bis(2-ethylhexyl) hexanedioate]	196.00
CC(C)CCCCCOC(=O)c1ccccc1C(=O)OCCCCCC(C)C [bis(6-methylheptyl) benzene-1,2-dicarboxylate]	232.00
